Results published in patent publication US20250304623A1, “PEPTIDES FOR INTRACELLULAR DELIVERY” (UNIVERSIDADE DE SANTIAGO DE COMPOSTELA, priority 2022, published 2025).
Starred links: 1 amine or outer side, 2 acyl side, 3 side chain; linkers in the order of their positions; H or OH if unused. Residues, ends and D or L forms follow the SMILES beside them. Groups on a side chain read outwards from the residue. *: point of attachment. Glutaryl = O=C(CCCC(=O)[*:2])[*:1]; X1 = CCCC/C=C\CCCCCCCC=NN*; NHNH2 = NN*

Key:
HeLa-EGFP cells = assay: Cas9 ribonucleoprotein delivery, flow cytometry of EGFP negative cells; type: cell-based
Experimental: FIG. 2 Percentage of editing (in bars, left axis) in HeLa-EGFP cells incubated with Cas9 ribonucleoprotein with an EGFP-targeting gRNA using the amphiphiles comprising 7.3(Leu-His) peptide with myristoleyl, palmitoleyl or petroselinyl aldehydes. After 3 days, EGFP negative cells (bars; left axis) and cell concentration (dots; right axis) were quantified by flow cytometry. ([Cas9]=50 nM, amphiphiles concentration in μM).
The inventors evaluated the intracellular delivery of Cas9 ribonucleoprotein with a gRNA targeting EGFP into HeLa-EGFP cells, using an amphiphilic molecule comprising peptide 7.3(Leu-His) combined with myristoleyl, palmitoleyl or petroselinyl aldehydes. After 3 days, EGFP negative cells were quantified by flow cytometry.

[1] = system: chicken embryo fibroblasts (CEF); assay: EGFP pDNA transfection in primary chicken embryo fibroblasts; type: cell-based
From the text: FIG. 5 EGFP pDNA transfection efficacy (% GFP-positive cells) with amphiphile comprising 7.3(Leu-His) peptide and myristoleyl aldehyde (7.3(L-H) M) at different concentrations, compared with Lipofectamine 2000 (LF) and TransIT-LT1 Transfection Reagent (Mirus) in CEF (chicken embryo fibroblasts).
The amphiphile obtained by combining the peptide 7.3(Leu-His) with myristoleyl aldehyde (7.3(Leu-His) M) was used to deliver EGFP pDNA in primary chicken embryo fibroblasts (CEF, obtained from 9-10 day-old chicken embryos), which are non-immortal cells difficult to transfect. The transfection efficiency of amphiphile 7.3(Leu-His) M was compared to that of Lipofectamine® 2000 (LF) and TransIT-LT1 Transfection Reagent (Mirus).

mice [2] = assay: In vivo FLuc mRNA delivery, i.m. injection, bioluminescence imaging
Experimental: In vivo bioluminescence imaging (BLI) enables localization and quantification of expression following mRNA delivery in living animals.
The inventors evaluated the mRNA delivery efficiency of amphiphile by i.m. injections of an amphiphile-complexed FLuc mRNA in anesthetized mice using BLI. Amphiphilic molecule stock solutions were prepared in DMSO as described above and diluted in a suitable buffer, such as PBS, or phosphate buffer enriched with inorganic salts. The solutions of mRNA/amphiphile complexes were freshly prepared prior to in vivo experiments. Amphiphile solutions in a suitable buffer, such as PBS, or phosphate buffer enriched with inorganic salts, were mixed with mRNA solutions in a suitable buffer, such as PBS, or phosphate buffer enriched with inorganic salts (1:1 volume ratio, final amount of mRNA per mice=5 μg/mouse). The mixture was shaken for 30 min at room temperature before injection. For each mouse, 5 μg mRNA was complexed with the best candidates obtained from the in vitro experiments, 7.3(Leu-His) with myristoleyl aldehyde (7.3(Leu-His) M) (FIG. 7) or with palmitoleyl aldehyde (7.3(Leu-His) PA) (FIG. 8), and administered by i.m. injection in the right flank in 50 μL of a suitable buffer, such as PBS, or phosphate buffer enriched with inorganic salts. As control, 5 μg of naked mRNA was injected in three mice. Luciferase expression was evaluated over 48 h, starting at 1 h after the administration of mRNA complexes. […] In contrast, i.m. injections of naked mRNA afforded only low levels of luciferase expression, as measured by photon flux, in all mice. The experiment was performed in, at least, triplicates (3 mice per condition).
After obtaining the conditions providing the highest expression, a second round of i.m. delivery of FLuc mRNA was performed to further optimize the formulation of the complexes. […]

mice [3] = assay: In vivo FLuc mRNA delivery, i.v. injection, predilution formulation, BLI; conditions: i.v. tail vein, organs after 24 h
Experimental: FIG. 10A In vivo mRNA transfection. Representative bioluminescence images of animals and extracted organs following i.v. (intravenous) injection of FLuc mRNA/amphiphile complexes (0, 2.5 and 5 μM of 7.3(Leu-His) M) at different times (1 h, 4 h, 7 h and 24 h). 1.3 μg FLuc mRNA were used in all conditions. FIG. 10B Quantification of the organs' bioluminescence
In the case of i.v. administration (tail vein), luciferase expression was evaluated over 24 h, starting at 1 h after the administration of mRNA complexes. After that time, the specimens were sacrificed, and each organ was analysed individually using BLI for quantification of the expression. In this case, preferred conditions involved the injection of 50 μL of complex solution in a suitable buffer, such as PBS, or phosphate buffer enriched with inorganic salts, comprising 2.5 μM 7.3(Leu-His) M and 1.3 μg/mouse FLuc mRNA.

Ai14 mice = assay: In vivo gene editing by Cre mRNA delivery, tdTomato fluorescence; conditions: i.v.; 7 μg Cre mRNA; 1:1 and 5:1 mass ratio amphiphile:mRNA; 2 days
Experimental: In vivo gene editing enables localization and quantification of expression following Cre recombinase mRNA delivery in Ai14 mice, a reporter strain that expresses tdTomato fluorescence after Cre-mediated recombination.
The inventors evaluated the mRNA delivery efficiency of amphiphile by i.v. injections of an amphiphile-complexed Cre recombinase mRNA (CleanCap® Cre mRNA (5moU), TriLink, L-7211) in Ai14 mice. Amphiphilic molecule stock solutions were prepared in DMSO as described above. The solutions of mRNA/amphiphile complexes were freshly prepared prior to in vivo experiments. Amphiphile solutions in DMSO were mixed with mRNA solutions in a suitable buffer, such as PBS, or phosphate buffer enriched with inorganic salts (1:1 and 5:1 mass ratio, final amount of mRNA per mice=7 μg/mouse). The mixture was shaken for 30 min at room temperature before injection. For each mouse, 7 μg mRNA was complexed with 7.3(Leu-His) with myristoleyl aldehyde (7.3(Leu-His) M), and administered by i.v. injection in the tail vein in 100 μL of a suitable buffer, such as PBS, or phosphate buffer enriched with inorganic salts. As control, 7 μg of naked mRNA was injected in three mice. After 2 days, mice were sacrificed and were imaged to confirm tdTomato expression.

[4] = system: all the cell lines except for HepG2

| concentration of cells relative to Lipofectamine (HeLa-EGFP cells; after 3 days, myristoleyl or palmitoleyl aldehydes, on average) | SMILES | % of editing (EGFP negative cells) (HeLa-EGFP cells; Cas9 50 nM, flow cytometry after 3 days, amphiphile tails myristoleyl or palmitoleyl) [%] | transfection efficiency relative to Lipofectamine 2000 (LF) [1] | transfection efficiency relative to TransIT-LT1 Transfection Reagent (Mirus) [1] | conditions giving highest bioluminescence (FLuc expression) (mice [2]; 2.5 μM amphiphile, 1.25, 3 or 5 μg/mouse FLuc mRNA) | luciferase activity at the site of injection (mice [2]; 5 μg FLuc mRNA) | time of peak luciferase expression (mice [2]; 5 μg FLuc mRNA, all concentrations tested (2.5, 5, 10 μM)) [h] | biodistribution of bioluminescence (mice [3]) | tdTomato expression in organs (Ai14 mice) | IC50 [4] [µM] | IC50 (HepG2) [µM] |
| --- | --- | --- | --- | --- | --- | --- | --- | --- | --- | --- | --- |
| three times higher | CC(=O)N[C@@H](CCCNC(=N)N)C(=O)N[C@@H](CCCCNC(=O)CCCC(=O)NN)C(=O)N[C@@H](Cc1c[nH]cn1)C(=O)N[C@@H](CCCNC(=N)N)C(=O)N[C@@H](CCCCNC(=O)CCCC(=O)NN)C(=O)N[C@@H](CCCCNC(=O)CCCC(=O)NN)C(=O)N[C@@H](Cc1c[nH]cn1)C(N)=O [7.3(L-H), Ac-RK*HRK*K*H-NH2] (Ac-RK([Glutaryl-NHNH2])HRK([Glutaryl-NHNH2])K([Glutaryl-NHNH2])H-NH2) | 70 |  |  |  |  |  |  |  |  |  |
|  | CCCC/C=C\CCCCCCCC=NNC(=O)CCCC(=O)NCCCC[C@H](NC(=O)[C@H](CCCCNC(=O)CCCC(=O)NN=CCCCCCCC/C=C\CCCC)NC(=O)[C@H](CCCNC(=N)N)NC(=O)[C@H](Cc1c[nH]cn1)NC(=O)[C@H](CCCCNC(=O)CCCC(=O)NN=CCCCCCCC/C=C\CCCC)NC(=O)[C@H](CCCNC(=N)N)NC(C)=O)C(=O)N[C@@H](Cc1c[nH]cn1)C(N)=O [7.3(Leu-His) M] (Ac-RK([Glutaryl-X1])HRK([Glutaryl-X1])K([Glutaryl-X1])H-NH2) |  | two times better | up to five times better | achieved with the complexes formed by 2.5 μM amphiphile and 5 μg/mouse of FLuc mRNA | High levels of luciferase activity | 7 | a preferred spleen biodistribution of the bioluminiscence was observed, followed by liver expression and, to a lesser extent, in the lungs | expression of tdTomato protein was observed preferably in spleen and lungs, being more intense when using 5:1 mass ratio amphiphile:mRNA | 13 to 24 | ~60 |
